From patent US10017712B2, “Method for producing vitamin E-enriched, especially tocotrienol-enriched, compositions from natural oils” (Evonik Degussa GmbH, priority 2014, dated 2018) come the findings set out here.

Data set [1] can be described thus: Partition coefficients of individual tocopherols and tocotrienols, palm oil with ethanol or methanol. It is filed as physicochemical. Here is the method: Table 3 provides values of the individual partition coefficient values of tocopherol and tocotrienol compounds found in palm oil. The values were measured by contacting palm oil and ethanol (denoted PC Eth in Table 3) and palm oil and methanol (denoted PC Meth in Table 3) at the oil to solvent ratios noted in the table—e.g. PC Eth 1:5 means that one volume of palm oil was contacted with 5 volumes of ethanol.

Data set [2] in a line: Single stage methanol extraction of vegetable oils, partition coefficient. The class given is physicochemical. The procedure: First methanol was tested for its efficiency in extracting of α-tocopherol and FFA from three vegetable oils. 200-300 ml of oil was mixed with the solvent using a magnetic stirrer at 35° C. The mixture is gravity separated and the oil stayed at the bottom. Partition coefficients of α-tocopherol and FFA were obtained by measuring the concentration of both compounds in the extract and the bottom fraction without evaporation of the solvent. The partition coefficient is calculated as follows: PC=(concentration in the extract)/(concentration in the bottom fraction).

Setting [3] is: PC Meth 1:1 (palm oil:methanol).
[4] abbreviates: PC Meth 1:2 (palm oil:methanol).
Where [5] appears, read: PC Meth 1:5 (palm oil:methanol).
Where [6] appears, read: PC Meth 1:7 (palm oil:methanol).
Where [7] appears, read: PC Meth 1:3 (palm oil:methanol).

`Cc1cc(O)cc2c1O[C@](C)(CCC[C@H](C)CCC[C@H](C)CCCC(C)C)CC2` [Delta-tocopherol]: the Partition coefficient in data set [1] (PC Eth 1:1 (palm oil:ethanol)) was found to be 0.50; in data set [1] (PC Eth 1:2 (palm oil:ethanol)) it was 0.47; in data set [1] (PC Eth 1:5 (palm oil:ethanol)), 0.53; in data set [1] (PC Eth 1:7 (palm oil:ethanol)), 0.29; in data set [1] (setting [3]), 0.25; in data set [1] (setting [4]), 0.07. The Partition coefficient in data set [1] (setting [5]) was 0.09; in data set [1] (setting [6]), 0.01.

Regarding `CC(C)=CCC/C(C)=C/CC/C(C)=C/CC[C@]1(C)CCc2cc(O)c(C)c(C)c2O1` [Gamma-tocotrienol], the Partition coefficient in data set [1] (PC Eth 1:1 (palm oil:ethanol)) was determined as 0.72; in data set [1] (PC Eth 1:2 (palm oil:ethanol)), 0.81; in data set [1] (PC Eth 1:3 (palm oil:ethanol)), 0.85; in data set [1] (PC Eth 1:5 (palm oil:ethanol)) it was 0.79; in data set [1] (PC Eth 1:7 (palm oil:ethanol)), 0.53; in data set [1] (setting [3]), 1.17. Besides, the Partition coefficient in data set [1] (setting [4]) was determined as 0.64; in data set [1] (setting [7]) it was 0.76; in data set [1] (setting [5]), 0.46; in data set [1] (setting [6]), 0.36.

With `Cc1c(C)c2c(c(C)c1O)CC[C@@](C)(CCC[C@H](C)CCC[C@H](C)CCCC(C)C)O2` [α-tocopherol], the “Partition coefficient” value in data set [2] (Palm Oil, Solvent:Oil Ratio 2:1, 35° C.) worked out at 0.15; in data set [2] (Rapeseed Oil, Solvent:Oil Ratio 3:1, 35° C.), 0.39; in data set [2] (Rice Bran Oil, Solvent:Oil Ratio 2:1, 35° C.) it was 0.20; in data set [1] (PC Eth 1:1 (palm oil:ethanol)), 0.30; in data set [1] (PC Eth 1:2 (palm oil:ethanol)), 0.31; in data set [1] (PC Eth 1:3 (palm oil:ethanol)), 0.25. For the same compound, the Partition coefficient in data set [1] (PC Eth 1:5 (palm oil:ethanol)) worked out at 0.42; in data set [1] (PC Eth 1:7 (palm oil:ethanol)) it was 0.22; in data set [1] (setting [3]), 0.21; in data set [1] (setting [4]) it was 0.15; in data set [1] (setting [7]), 0.21; in data set [1] (setting [5]), 0.11. The Partition coefficient in data set [1] (setting [6]) worked out at 0.09.
